Source: patent publication US20090162351A1, “Transdiscal administration of inhibitors of p38 MAP kinase” (DePuy Spine, Inc., priority 2007, published 2009)
Like-named read-outs stand apart in the source and are kept apart here.

Legend:
[1] = system: injured bovine cartilage explants
Text: Bovine articular cartilage was obtained from the knee joints of adult, eighteen to twenty-four month old animals and processed within twenty-four hours after sacrifice. […] Care was taken to consistently prepare the same thickness of bone layer. The cartilage-on-bone specimens were subjected to an impact. […] After each impact, the cartilage area with a visible indent of ˜0.5-1 mm in the center was punched out with a 3 mm diameter puncher and immediately soaked in PBS with 1× Antibiotic-Antimycotic. Throughout the impact procedure and preparation of specimens, the cartilage was kept moist using PBS to prevent tissue dehydration. The cartilage discs were sterilized through 3× one hour wash in PBS with 10× Antibiotic-Antimycotic followed by 1×0.5 hour wash in PBS with 1× Antibiotic-Antimycotic. After wash, the specimens were incubated with conditioned medium harvested from peripheral blood mononuclear cells (PBMC) stimulated with or without LPS and at the same time, were treated with or without compounds for five days at 37° C., 5% CO2. Culture medium was collected for GAG release, NO and PGE2 assays, and assessment for cytotoxicity.
Cell death was assessed by measuring the amount of lactate dehydrogenase (LDH) in the culture supernatant. 10-20 μl of culture medium was incubated with the reaction mixture from the Cytotoxicity Detection Kit (LDH, Roche), as described in Example III above. The amount of formazan formed was measured at 500 nm, which was proportional to the number of dead cells. Since no purified LDH was available for a standard curve at each measurement, an LDH level for 100% dead cells was measured in each experiment. The lysate for the dead cells was prepared as follows: Chondrocytes were enzymatically isolated as described earlier and about 0.1 million cells that were equivalent to the number of cells contained in a 3-mm punch of fresh cartilage explant were lysed in 1 ml of PBS with 1% Triton-100. Approximately 10-20 μl of the lysate was used in the assay as killed cell control. […]

[2] = Water solubility; type: physicochemical
[3] = target: p38a MAP kinase (Homo sapiens, UniProt Q16539); assay: Binding to p38a MAP kinase; details: read-out: binds p38a MAP kinase, Kd
[4] = system: PGE2 synthesis in injured bovine cartilage explants; assay: Drop tower model: PGE2 synthesis in injured cartilage explants; type: cell-based; details: for inhibition at 1 µM / inhibition at 10 µM: Bos taurus, injured cartilage explants; for effect on PGE2 synthesis (in words): drop tower model, cocktail of cytokines
Procedure: (§1) In the second method, the explants were cultured at 37° C., 5% CO2 either in stimulated or non-stimulated conditioned medium as described above or in defined medium containing DMEM supplemented with 1% FCS, 1× insulin-transferrin-sodium selenite media supplement and Antibiotics-Antimycotics in the presence or absence of a cocktail of cytokines containing 10 ng/ml of IL-1β, 100 ng/ml of TNFα and 5 ng/ml of IFN-γ. The compounds were solubilized in H2O, Ethanol or DMSO (10^−2 M) according to suppliers' instructions and further diluted with either conditioned medium stimulated with or without LPS to the required concentrations. DMSO concentrations in the culture media never exceeded 1%. This concentration of DMSO has no effect on cartilage proteoglycan metabolism in response to cytokines. The injured and noninjured cartilage explants were treated with compound-containing medium for three to five days. The specimens were first treated with compounds at desired concentrations at 37° C. for one hour and then incubated for three to five days in the absence or presence of the cocktail of cytokines. At the end of the incubation, media and cartilage samples were harvested and frozen for further analysis.
PGE2 was measured with STAT-Prostaglandin E2 EIA ELISA kit (Cayman Biochemicals), as described in Example III above. The antibody-PGE2 complex binds to a goat polyclonal anti-mouse IgG that has been previously attached to the well. After washing to remove any unbound reagents, para-nitrophenyl phosphate (pNPP) was added to the well. The product of this enzymatic reaction absorbs strongly at 412 nm. Because of the large range in response to IL-1β and other cytokines, PGE2 values were converted to log scale prior to doing t-tests.

[5] = target: COX1 (Homo sapiens, UniProt P23219); assay: COX1 inhibition; type: biochemical; details: read-out: inhibitor of COX1, IC50
Sequence of COX1 (P23219 24-599): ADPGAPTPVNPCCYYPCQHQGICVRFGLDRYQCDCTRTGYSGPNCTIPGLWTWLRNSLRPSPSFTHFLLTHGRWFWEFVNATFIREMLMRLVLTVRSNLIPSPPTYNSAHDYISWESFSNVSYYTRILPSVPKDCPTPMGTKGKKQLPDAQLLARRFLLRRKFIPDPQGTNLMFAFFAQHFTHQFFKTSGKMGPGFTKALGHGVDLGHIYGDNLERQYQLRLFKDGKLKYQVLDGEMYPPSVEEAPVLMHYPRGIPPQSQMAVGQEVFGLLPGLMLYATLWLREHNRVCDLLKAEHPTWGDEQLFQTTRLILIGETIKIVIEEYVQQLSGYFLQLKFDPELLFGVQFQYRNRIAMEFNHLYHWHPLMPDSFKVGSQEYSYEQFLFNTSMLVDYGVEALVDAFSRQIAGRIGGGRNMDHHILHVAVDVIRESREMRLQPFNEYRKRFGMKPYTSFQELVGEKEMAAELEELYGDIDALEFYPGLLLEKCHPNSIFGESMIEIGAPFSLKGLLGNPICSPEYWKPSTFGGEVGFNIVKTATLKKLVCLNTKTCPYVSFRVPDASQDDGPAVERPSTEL

[6] = target: p38α MAP kinase (h-p38α) (Homo sapiens, UniProt Q16539); assay: p38α MAP kinase inhibition (direct enzyme assay); type: biochemical; details: read-out: inhibitor of p38a MAP kinase, IC50
Sequence of p38α MAP kinase (h-p38α) (Q16539 whole entry): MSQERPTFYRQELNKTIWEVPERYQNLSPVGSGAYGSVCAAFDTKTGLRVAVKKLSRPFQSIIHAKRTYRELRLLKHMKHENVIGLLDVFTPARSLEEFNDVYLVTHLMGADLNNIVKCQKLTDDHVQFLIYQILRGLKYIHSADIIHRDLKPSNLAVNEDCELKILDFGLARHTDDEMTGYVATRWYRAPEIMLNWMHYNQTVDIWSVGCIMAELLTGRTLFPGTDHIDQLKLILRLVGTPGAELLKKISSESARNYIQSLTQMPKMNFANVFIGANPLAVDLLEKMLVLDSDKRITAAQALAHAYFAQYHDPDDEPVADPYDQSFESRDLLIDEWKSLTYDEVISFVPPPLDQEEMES

[7] = system: NO production in injured bovine cartilage explants; assay: Drop tower model: NO production in injured cartilage explants; type: cell-based; details: for inhibition at 10 µM: Bos taurus, injured cartilage explants; for effect on NO production (in words): drop tower model, cocktail of cytokines
Procedure: as §1
Nitrate/Nitrite was measured using the Griess reaction (Green L. C. et al., “Analysis of Nitrate, Nitrite, and [15N]nitrate in Biological Fluids,” Anal. Biochem. 126: 131-138 (1982)) with a Nitrate/Nitrite Colorimetric Assay Kit (Cayman Chemicals), as described in Example III above.

[8] = system: aggrecan and collagen type 2 mRNA in bovine AF and NP cells; assay: 3D in vitro disc cell model: Taqman gene expression; type: cell-based; details: 10 ng/ml IL-1β; inhibitor 1 μM, rhGDF-5 200 ng/ml
Text: Three-dimensional in vitro annulus fibrosis (AF) and nucleus pulposus (NP) models were established to investigate proteoglycan modulation and changes in gene expression in response to inflammatory cytokines such as interleukin-1 (e.g., IL-1β) and potential therapeutic agents such as growth and differentiation factor (GDF-5), and p38 MAP kinase inhibitors. AF and NP cells from bovine caudal discs were isolated by enzymatic digestion and seeded (2×10^6 cells/cm^2) onto Millipore CM filters coated with Collagen Type II and cultured in DMEM/20% heat-inactivated FBS, 100 ug/ml ascorbic acid and 5 ng/ml TGFβ1. […] Results were evaluated by histology (Tol. Blue staining was used to observe matrix production). Dimethylmethylene blue (DMMB) was used to detect sulphated glycosaminoglycans in a GAG/DNA assay. Taqman analysis was performed on aggrecans (AGG), collagen type 1 (col-1), collagen type 2 (col-2), and MMP 3, MMP 9 and MMP 13. In FIGS. 19A-C and 20A-C, annulus fibrosus and nucleus pulposus cells from bovine caudal discs were isolated by enzymatic digestion and seeded (2×10^6 cells/cm2) onto Millipore CM filters coated with Collagen Type II and cultured in DMEM/20% heat-inactivated FBS/100 ug/ml ascorbic acid and 5 ng/ml TGF-β1.

[9] = target: T1, COX2 (Homo sapiens, UniProt P35354); assay: COX2 inhibition; type: biochemical; details: read-out: inhibitor of COX2, IC50
T1 sequence (P35354 18-604): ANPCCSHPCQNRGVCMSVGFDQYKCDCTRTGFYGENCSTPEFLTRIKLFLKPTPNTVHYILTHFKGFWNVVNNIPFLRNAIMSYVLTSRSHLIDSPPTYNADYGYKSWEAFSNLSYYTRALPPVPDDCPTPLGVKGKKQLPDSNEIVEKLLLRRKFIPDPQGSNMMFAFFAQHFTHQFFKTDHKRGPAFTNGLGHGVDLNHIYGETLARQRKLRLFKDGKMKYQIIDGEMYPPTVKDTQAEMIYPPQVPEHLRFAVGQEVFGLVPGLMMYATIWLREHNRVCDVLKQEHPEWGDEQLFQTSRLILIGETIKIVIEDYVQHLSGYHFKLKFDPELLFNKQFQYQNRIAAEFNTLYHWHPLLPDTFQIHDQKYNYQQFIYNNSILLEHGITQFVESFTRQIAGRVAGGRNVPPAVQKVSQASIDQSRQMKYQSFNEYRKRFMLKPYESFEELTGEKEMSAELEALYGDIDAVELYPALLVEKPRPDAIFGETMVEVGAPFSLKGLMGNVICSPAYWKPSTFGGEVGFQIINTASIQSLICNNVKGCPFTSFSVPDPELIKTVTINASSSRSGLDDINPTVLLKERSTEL

[10] = system: LPS-induced TNF in human peripheral blood mononuclear cells (hPBMC); assay: LPS-induced TNF in hPBMC; type: cell-based; details: read-out: inhibitor of LPS-induced TNF hPBMC, IC50
[11] = target: inactivated p38 MAP kinase (Homo sapiens, UniProt Q16539); assay: Binding to inactivated p38 MAP kinase; details: read-out: binds to inactivated p38 MAP kinase, Kd
Sequence of inactivated p38 MAP kinase (Q16539 whole entry): as the sequence (Q16539 whole entry) above

[12] = Rat PK; type: in vivo
[13] = target: CYP2C9 (Homo sapiens, UniProt P11712); assay: CYP2C9 inhibition; type: in vitro ADME
Sequence of CYP2C9 (P11712 whole entry): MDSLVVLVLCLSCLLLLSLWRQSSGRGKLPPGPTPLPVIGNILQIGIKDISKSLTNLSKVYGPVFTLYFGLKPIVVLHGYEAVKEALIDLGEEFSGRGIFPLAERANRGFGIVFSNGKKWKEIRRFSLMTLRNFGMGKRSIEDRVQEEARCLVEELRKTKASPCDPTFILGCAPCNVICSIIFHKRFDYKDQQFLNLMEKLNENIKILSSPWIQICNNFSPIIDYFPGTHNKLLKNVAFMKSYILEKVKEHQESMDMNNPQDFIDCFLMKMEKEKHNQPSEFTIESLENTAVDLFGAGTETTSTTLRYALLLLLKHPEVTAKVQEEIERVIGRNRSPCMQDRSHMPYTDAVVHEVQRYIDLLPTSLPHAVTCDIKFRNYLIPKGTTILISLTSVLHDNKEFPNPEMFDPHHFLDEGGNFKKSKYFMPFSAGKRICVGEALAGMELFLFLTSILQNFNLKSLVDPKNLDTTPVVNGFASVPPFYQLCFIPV

[14] = system: 6 CYP450; assay: Inhibition of 6 CYP450; type: in vitro ADME

Sequence of p38a MAP kinase (Q16539 whole entry): as the sequence (Q16539 whole entry) above

Row | Compound | cytotoxicity, LDH (in words) [1] | water solubility (in words) [2] | effect on PGE2 synthesis (in words) [4] | IC50 [5] [nM] | IC50 [6] [nM] | effect on NO production (in words) [7] | IC50 [9] [nM] | further results
1 | CC(=O)Oc1cccc2c1C(=O)c1c(OC(C)=O)cc(C(=O)O)cc1C2=O [Diacerein, reference compound] | tolerant | – | – | – | – | – | – | –
2 | OCCC#Cc1nc(-c2ccc(F)cc2)c(-c2ccncc2)n1CCCc1ccccc1 [JNJ 3026582 (RWJ 67657), 4-[4-(4-fluorophenyl)-1-(3-phenylpropyl)-5-(4-pyridinyl)-1H-imidazol-2-yl]-3-butyn-1-ol] | – | poor water solubility | dose-dependently inhibited | > 10000 | 20 | dose-dependently inhibited | > 10000 | pH at which soluble [2]: < 2; solubility in 0.1 M HCl (in words) ([2]; 0.1 M HCl): soluble in 0.1 M HCl; Kd [3]: 9 nM; inhibition at 1 µM [4]: 33%; inhibition at 10 µM [4]: 90%; inhibition at 10 µM [7]: 66%; gene expression of Agg and Col 2 (in words) [8]: restored; IC50 ([10]; Homo sapiens, PBMC): 4 nM
3 | C[C@H](Nc1nccc(-c2c(-c3ccc(F)cc3)nc3nc(N)ccn23)n1)c1ccccc1 [JNJ 7583979 (RWJ 351958)] | – | poor water solubility | – | > 10000 | 1 | – | > 10000 | solubility ([2]; water (aqueous, simulated gastric fluid), at pH 2, read-out: solubility): > 1 mg/mL
4 | CC(=O)N1CCN(c2c(-c3ccncc3)c(-c3ccc(F)cc3)c(C#N)n2C)CC1 [JNJ 17089540 (RWJ 669307)] | – | – | dose-dependently inhibited | > 10000 | 2000 | dose-dependently inhibited | > 10000 | Kd [11]: 100 nM; water solubility ([2]; of HCl salt): > 100 mg/mL; IC50 [10]: 220 nM
5 | CO[C@H]1C[C@@H]2CC[C@@H](C)[C@@](O)(O2)C(=O)C(=O)N2CCCC[C@H]2C(=O)O[C@H]([C@H](C)C[C@@H]2CC[C@@H](O)[C@H](OC)C2)CC(=O)[C@H](C)/C=C(\C)[C@@H](O)[C@@H](OC)C(=O)[C@H](C)C[C@H](C)/C=C/C=C/C=C/1C [Rapamycin, reference compound] | little cytotoxicity | – | – | – | – | – | – | –
6 | O=C(O)c1cc(O)c2c(c1)C(=O)c1cccc(O)c1C2=O [Rhein, reference compound] | tolerant | – | – | – | – | – | – | –
7 | C[C@@H]1CN(Cc2ccc(F)cc2)[C@@H](C)CN1C(=O)c1cc2cc(C(=O)C(=O)N(C)C)[nH]c2cc1Cl [SCIO-282 (SD 282)] | – | limited water solubility | dose-dependently inhibited | – | – | dose-dependently inhibited | – | Rat (F) PK, F % ([12]; female rat): 46%; IC50 [13]: 500 nM
8 | C[C@@H]1CN(Cc2ccc(F)cc2)[C@@H](C)CN1C(=O)c1cc2c(C(=O)C(=O)N(C)C)cn(C)c2cc1Cl [SCIO-469 (SD 469)] | – | – | inhibited | – | – | inhibited | – | half-life ([12]; in vivo, female rat, read-out: Rat (F) PK, t1/2 (converted)): 60 min; bioavailability ([12]; in vivo, male rat, read-out: Rat (M) PK, F %): 15%; half-life ([12]; in vivo, male rat, read-out: Rat (M) PK, t1/2 (converted)): 30 min; IC50 [14]: > 1000 nM; IC50 ([14]; human, Table 2): > 1000 nM
9 | COc1ccc(-n2nc(CCC(=O)N(C)O)cc2-c2ccc(Cl)cc2)cc1 [Tepoxalin, reference compound] | – | – | – | – | – | – | – | inhibition at 1 µM [4]: 77%; inhibition at 10 µM [4]: 90%; inhibition at 10 µM [7]: 100%
